Like-named read-outs stand apart in the source and are kept apart here.
What was measured:
[1] = molecular target: hBACE 1 (Homo sapiens, UniProt P56817); assay: BACE 1 inhibition assay; assay type: biochemical
[2] = molecular target: EeAChE (Electrophorus electricus, UniProt O42275); assay: AChE inhibition assay; assay type: biochemical
Chain of EeAChE (O42275 24-633): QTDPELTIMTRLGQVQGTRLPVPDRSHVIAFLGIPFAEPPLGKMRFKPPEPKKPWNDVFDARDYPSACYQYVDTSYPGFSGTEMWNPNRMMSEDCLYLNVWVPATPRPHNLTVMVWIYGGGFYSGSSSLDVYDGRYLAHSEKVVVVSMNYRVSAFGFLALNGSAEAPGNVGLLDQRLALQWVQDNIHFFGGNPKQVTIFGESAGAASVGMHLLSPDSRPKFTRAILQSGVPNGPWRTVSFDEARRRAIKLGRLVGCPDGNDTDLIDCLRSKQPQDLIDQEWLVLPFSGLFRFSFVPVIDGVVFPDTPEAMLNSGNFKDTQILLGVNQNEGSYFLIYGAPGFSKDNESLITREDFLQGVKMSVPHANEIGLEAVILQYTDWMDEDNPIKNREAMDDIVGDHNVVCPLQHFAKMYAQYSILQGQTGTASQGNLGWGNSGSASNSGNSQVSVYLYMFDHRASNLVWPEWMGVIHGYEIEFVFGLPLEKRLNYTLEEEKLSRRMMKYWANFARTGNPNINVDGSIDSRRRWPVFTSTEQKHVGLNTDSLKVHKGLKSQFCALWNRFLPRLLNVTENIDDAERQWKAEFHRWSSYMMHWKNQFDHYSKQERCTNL

Chain of hBACE 1 (P56817 46-501): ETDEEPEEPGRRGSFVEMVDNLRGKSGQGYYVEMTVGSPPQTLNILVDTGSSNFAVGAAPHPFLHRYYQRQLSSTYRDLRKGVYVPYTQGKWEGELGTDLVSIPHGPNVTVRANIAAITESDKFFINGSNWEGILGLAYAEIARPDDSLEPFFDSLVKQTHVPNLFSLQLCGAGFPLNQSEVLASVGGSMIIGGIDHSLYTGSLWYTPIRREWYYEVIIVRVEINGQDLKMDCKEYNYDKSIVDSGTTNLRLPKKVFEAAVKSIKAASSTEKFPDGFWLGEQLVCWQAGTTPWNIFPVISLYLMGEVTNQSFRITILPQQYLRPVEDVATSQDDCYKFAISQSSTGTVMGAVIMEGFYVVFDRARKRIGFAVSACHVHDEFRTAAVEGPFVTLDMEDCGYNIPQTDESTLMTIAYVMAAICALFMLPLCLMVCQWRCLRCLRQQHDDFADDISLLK

SMILES: [H]/N=C(/N)NN=C(/C=C/c1ccc(F)c(F)c1)c1cccn1Cc1ccc(C(C)(C)C)cc1 [Compound 3f, (Z)-2-((E)-1-(1-(4-(tert-Butyl)benzyl)-1H-pyrrol-2-yl)-3-(3,4-difluorophenyl)allylidene)hydrazine-1-carboximidamide]
- IC50 ([1]; read-out: hBACE 1 IC50 (μM) ± SD, FRET assay, mean ± SD of three experiments): 135.9 ± 0.71 µM
- IC50 ([2]; read-out: eeAChE IC50 (μM) ± SD, Ellman assay, mean ± SD of three experiments): 126.1 ± 0.71 µM

SMILES: [H]/N=C(/N)NN=C(/C=C/c1ccc(C(C)(C)C)cc1)c1cccn1Cc1ccc(-c2ccccc2)cc1 [Compound 3g, (Z)-2-((E)-1-(1-([1,1′-Biphenyl]-4-ylmethyl)-1H-pyrrol-2-yl)-3-(4-(tert-butyl)phenyl)allylidene)hydrazine-1-carboximidamide]
- IC50 [1]: 185.4 ± 1.84 µM
- IC50 [2]: 76.1 ± 0.79 µM

SMILES: [H]/N=C(/N)NN=C(/C=C/c1ccc(C(C)(C)C)cc1)c1cccn1Cc1ccc(C(F)(F)F)cc1 [Compound 3h, (Z)-2-((E)-3-(4-(tert-Butyl)phenyl)-1-(1-(4-(trifluoromethyl)benzyl)-1H-pyrrol-2-yl)allylidene)hydrazine-1-carboximidamide]
- IC50 [1]: 179 ± 2.26 µM
- IC50 [2]: 71.17 ± 0.49 µM

SMILES: [H]/N=C(/N)NN=C(/C=C/c1ccc(C(C)(C)C)cc1)c1cccn1Cc1ccc(Br)cc1 [Compound 3i, (Z)-2-((E)-1-(1-(4-Bromobenzyl)-1H-pyrrol-2-yl)-3-(4-(tert-butyl)phenyl)allylidene)hydrazine-1-carboximidamide]
- IC50 [1]: 193 ± 2.12 µM
- IC50 [2]: 83.94 ± 0.74 µM

SMILES: [H]/N=C(/N)NN=C(/C=C/c1cc(OC)cc(OC)c1)c1cccn1Cc1ccc(C(C)(C)C)cc1 [Compound 3j, (Z)-2-((E)-1-(1-(4-(tert-Butyl)benzyl)-1H-pyrrol-2-yl)-3-(3,5-dimethoxyphenyl)allylidene)hydrazine-1-carboximidamide]
- IC50 [1]: 177 ± 2.83 µM
- IC50 [2]: 69.6 ± 1.51 µM

SMILES: [H]/N=C(/N)NN=C(/C=C/c1ccc(C(C)(C)C)cc1)c1cccn1Cc1ccc(C(C)(C)C)cc1 [Compound 3k, (Z)-2-((E)-1-(1-(4-(tert-Butyl)benzyl)-1H-pyrrol-2-yl)-3-(4-(tert-butyl)phenyl)allylidene)hydrazine-1-carboximidamide]
- IC50 [1]: 178.2 ± 0.92 µM
- IC50 [2]: 48.1 ± 0.52 µM

SMILES: [H]/N=C(/N)NN=C(/C=C/c1ccc(Cl)cc1)c1cccn1Cc1ccc(Br)cc1 [Compound 3l, (Z)-2-((E)-1-(1-(4-Bromobenzyl)-1H-pyrrol-2-yl)-3-(4-chlorophenyl)allylidene)hydrazine-1-carboximidamide]
- IC50 [1]: 192.3 ± 1.77 µM
- IC50 [2]: 123 ± 3.11 µM

— publication PMC11341970 (RSC Advances, 2024)
